# Data taken from patent US8697694B2, “Substituted pyridine and pyrimidine derivatives and their use in treating viral infections” (priority 2008, dated 2014).
# Read-outs that look alike come from different tables or passages of the source.
# Test system: HCV replicon cells
# Assay: Cell-based HCV replicon assay (replicon RNA level by real time PCR, Taqman)
# Conditions: HCV replicon cells, read-out: EC90 (μM) range
# Method in brief: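 HCV replicon cells treated 3 days with 10 serial 2-fold compound dilutions (top 25 μM to 1 μM; 0.5% DMSO, 10% FBS). Replicon RNA quantified by multiplex Taqman RT-PCR (NS5B amplicon, GAPDH control); EC50 and EC90 = concentrations giving ΔCT of 1 and 3.2 over baseline.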
# [1] = Hepatitis C virus, 72 h, replicon RNA level by real time PCR, harvested day 3
# [2] = Hepatitis C virus, 72 h, harvested day 3, replicon RNA by real time PCR, reported as range class
# [3] = Hepatitis C virus, 72 h, replicon RNA level by real time PCR (Taqman), harvested on day 3, calculated EC90 reported as range class
# [4] = Hepatitis C virus, 72 h, harvested on day 3, replicon RNA by real time PCR, calculated EC90 reported as range class
# [5] = Hepatitis C virus, 72 h, harvested day 3, replicon RNA by real time PCR, given as number
# [6] = harvested day 3, replicon RNA by real time PCR, reported as range class
structure (smiles),measurement,setting,value
Cc1ccc([C@@H](C)Nc2nc(C)c(-c3nc4c(CC(C)C)nccc4s3)c(N[C@@H]3C[C@H](CO)[C@@H](O)[C@H]3O)n2)cc1 [Example 1372],EC90,[1],< 0.5 µM
OC[C@H]1C[C@@H](Nc2nc(NCCCF)nc(Cl)c2-c2nc3ccccc3s2)[C@H](O)[C@@H]1O [Example 126],EC90,[2],< 0.5 µM
Cc1ccc([C@H](C)Nc2nc(C)c(-c3nc4cnccc4s3)c(N[C@@H]3CC[C@@H](O)[C@@]3(C)O)n2)cc1 [Example 1810],EC90,[1],< 0.5 µM
COc1cc2cc(-c3c(C)nc(NCC4CC4)nc3N[C@@H]3C[C@H](CO)[C@H]4OC(C)(C)O[C@H]43)oc2c(OC)n1 [Example 1126],EC90,[3],0.5 to 5 µM
Cc1nc(NCC(F)F)nc(N[C@@H]2C[C@H](CO)[C@@H](O)[C@H]2O)c1-c1nc2ccccc2s1 [Example 215],EC90,[2],< 0.5 µM
Cc1ccccc1Nc1nc(C)c(-c2nc3ccccc3s2)c(N[C@@H]2C[C@H](CO)[C@@H](O)[C@H]2O)n1 [Example 1047],EC90,[3],0.5 to 5 µM
CC(C)Nc1nc(Cl)c(-c2nc3ccccc3s2)c(N[C@@H]2C[C@H](CO)[C@@H](O)[C@H]2O)n1 [Example 426],EC90,[4],< 0.5 µM
CCOCCNc1nc(C)c(-c2cc3cc(C(F)(F)F)ncc3o2)c(N[C@@H]2C[C@H](CO)[C@H]3OC(C)(C)O[C@H]32)n1 [Example 134],EC90,[4],> 5 µM
OC[C@H]1C[C@@H](Nc2nc(NCCc3ccccc3)nc(Cl)c2-c2nc3ccccc3s2)[C@H](O)[C@@H]1O [Example 444],EC90,[4],< 0.5 µM
CCCc1cc2cc(-c3c(Cl)nc(N)nc3N[C@@H]3C[C@H](CO)[C@@H](O)[C@H]3O)oc2cn1 [Example 410],EC90,[2],< 0.5 µM
Cc1nc(NCC(C)(C)C)nc(N[C@@H]2C[C@H](CO)[C@@H](O)[C@H]2O)c1-c1cc2cc(C(C)(C)C)ncc2o1 [Example 1104],EC90,[3],> 5 µM
Cc1nc(NCc2ccco2)nc(N[C@@H]2C[C@H](CO)[C@@H](O)[C@H]2O)c1-c1nc2ccccc2s1 [Example 1110],EC90,[3],< 0.5 µM
COc1cccc2sc(-c3c(C)nc(NCC(F)(F)F)nc3N[C@@H]3C[C@H](C(C)O)[C@@H](O)[C@H]3O)nc12 (stereo partly shown) [Example 1072],EC90,[3],0.5 to 5 µM
CCCCCCNc1nc(C)c(-c2nc3ccccc3s2)c(N[C@@H]2C[C@H](CO)[C@H]3OC(C)(C)O[C@H]32)n1 [Example 1117],EC90,[3],> 5 µM
Cc1nc(NCC2CC2)nc(N[C@@H]2C[C@H](CO)[C@@H](O)C2)c1-c1nc2ccccc2s1 [Example 1240],EC90,[3],0.5 to 5 µM
Cc1nc(N[C@H](C)C(F)(F)F)nc(N[C@@H]2C[C@H](CO)[C@@H](O)[C@H]2O)c1-c1nc2ccccc2s1 [Example 1623],EC90,[1],0.5 to 5 µM
Cc1nc(NCC2CC2)nc(N[C@@H]2C[C@H](CO)[C@@H](O)[C@H]2O)c1-c1cc2cc(OCC(F)(F)F)nc(C)c2o1 [Example 47],EC90,[5],0.4 µM
COc1cc2cc(-c3c(Cl)nc(N(C)C)nc3N[C@@H]3C[C@H](CO)[C@@H](O)[C@H]3O)oc2c(C)n1 [Example 12],EC90,[6],0.5 to 5 µM
Cc1cc(CNc2nc(C)c(-c3nc4ccccc4s3)c(N[C@@H]3C[C@H](CO)[C@H]4OC(C)(C)O[C@H]43)n2)no1 [Example 491],EC90,[4],0.5 to 5 µM
OC[C@H]1C[C@@H](Nc2nc(NCCCC(F)(F)F)nc(Cl)c2-c2nc3ccccc3s2)[C@H](O)[C@@H]1O [Example 224],EC90,[2],< 0.5 µM
Cc1cc(CNc2nc(C)c(-c3nc4ccccc4s3)c(N[C@@H]3C[C@H](CO)[C@@H](O)[C@H]3O)n2)no1 [Example 492],EC90,[4],< 0.5 µM
CCc1cc2cc(-c3c(C)nc(O)nc3N[C@@H]3C[C@H](CO)[C@@H](O)[C@H]3O)oc2cn1 [Example 1303],EC90,[3],0.5 to 5 µM
Cc1nc(NCc2c(F)cccc2F)nc(N[C@@H]2C[C@H](CO)[C@@H](O)[C@H]2O)c1-c1nc2ccccc2s1 [Example 1910],EC90,[1],< 0.5 µM
Nc1nc(Cl)c(-c2ccc(Oc3ccccc3)cc2)c(N[C@@H]2C[C@H](CO)[C@@H](O)[C@H]2O)n1 [Example 101],EC90,[2],> 5 µM
CCOc1cc2cc(-c3c(C)nc(NC(C)C)nc3N[C@@H]3C[C@H](CO)[C@@H](O)[C@H]3O)oc2c(C)n1 [Example 32],EC90,[5],0.95 µM
Cc1nc(N(C)Cc2ccccc2)nc(N[C@@H]2C[C@H](CO)[C@H]3OC(C)(C)O[C@H]32)c1-c1nc2ccccc2s1 [Example 1115],EC90,[3],> 5 µM
Cc1nc(NC(C)(C)c2ccccc2)nc(N[C@@H]2C[C@H](CO)[C@@H](O)[C@H]2O)c1-c1nc2cnccc2s1 [Example 1229],EC90,[3],0.5 to 5 µM
Cc1nc(C#N)nc(N[C@@H]2C[C@H](CO)[C@@H](O)[C@H]2O)c1-c1nc2ccccc2s1 [Example 1904],EC90,[1],> 5 µM
COc1cc(CNc2nc(C)c(-c3nc4ccccc4s3)c(N[C@@H]3C[C@H](CO)[C@H]4OC(C)(C)O[C@H]43)n2)cc(OC)c1OC [Example 710],EC90,[4],< 0.5 µM
CCOc1cc2cc(-c3c(C)nc(NCC(C)(C)C)nc3N[C@@H]3C[C@H](CO)[C@@H](O)[C@H]3O)oc2c(C)n1 [Example 27],EC90,[5],0.35 µM
COc1cccc2sc(-c3c(C)nc(N[C@H](C)c4ccc(C)cc4)nc3N[C@@H]3C[C@H](CO)[C@@H](O)[C@H]3O)nc12 [Example 1068],EC90,[3],0.5 to 5 µM
CCc1nccc2sc(-c3c(C)nc(NCC(C)(C)C)nc3N[C@@H]3C[C@H](CO)[C@@H](O)[C@H]3O)nc12 [Example 1334],EC90,[3],< 0.5 µM
CCCc1nccc2sc(-c3c(C)nc(NC4CC4)nc3N[C@@H]3C[C@H](CO)[C@@H](O)[C@H]3O)nc12 [Example 1535],EC90,[1],< 0.5 µM
Nc1nc(Cl)c(-c2cc3cc(F)ccc3o2)c(N[C@@H]2C[C@H](CO)[C@@H](O)[C@H]2O)n1 [Example 164],EC90,[2],> 5 µM
CCOCCNc1nc(C)c(-c2nc(C)c(C)s2)c(N[C@@H]2C[C@H](CO)[C@H]3OC(C)(C)O[C@H]32)n1 [Example 133],EC90,[4],> 5 µM
Cc1nc(Nc2ccc(F)cc2)nc(N[C@@H]2C[C@H](CO)[C@@H](O)[C@H]2O)c1-c1nc2cnccc2s1 [Example 1053],EC90,[3],< 0.5 µM
Cc1nc(NCCc2cccs2)nc(N[C@@H]2C[C@H](CO)[C@@H](O)[C@H]2O)c1-c1nc2ccccc2s1 [Example 1805],EC90,[1],< 0.5 µM
CCOCCNc1nc(Cl)c(-c2cc3cc(CC)ncc3o2)c(N[C@@H]2C[C@H](CO)[C@@H](O)[C@H]2O)n1 [Example 512],EC90,[4],< 0.5 µM
Nc1nc(Cl)c(-c2cc3ccncc3o2)c(N[C@@H]2C[C@H](CO)[C@@H](O)[C@H]2O)n1 [Example 9],EC90,[2],< 0.5 µM
Cc1nc(NC(C)C)nc(N[C@@H]2C[C@H](CO)[C@@H](O)[C@H]2O)c1-c1nc2ccccc2s1 [Example 427],EC90,[4],< 0.5 µM
COc1cc2cc(-c3c(Cl)nc(N(C)C)nc3N[C@@H]3C[C@H](CO)[C@@H](O)[C@H]3O)oc2c(C)n1 [Example 13],EC90,[6],> 5 µM
Nc1nc(Cl)c(-c2cc3cnc(=O)[nH]c3o2)c(N[C@@H]2C[C@H](CO)[C@@H](O)[C@H]2O)n1 [Example 307],EC90,[2],> 5 µM
"Cc1nc(N[C@H](C)c2ccc(OC(F)(F)F)cc2)nc(N[C@@H]2C[C@H](C(C)O)[C@@H](O)[C@H]2O)c1-c1nc2ccccc2s1 (single isomer, unassigned) [Example 1645]",EC90,[1],0.5 to 5 µM
Cc1nc(NCc2ccc(F)cc2)nc(N[C@@H]2C[C@H](CO)[C@@H](O)[C@H]2O)c1-c1nc2ccccc2s1 [Example 238],EC90,[4],< 0.5 µM
Cc1cccc(CNc2nc(C)c(-c3nc4ccccc4s3)c(N[C@@H]3C[C@H](CO)[C@H]4OC(C)(C)O[C@H]43)n2)c1 [Example 485],EC90,[4],0.5 to 5 µM
Cc1nc(NCC(F)(F)F)nc(N[C@@H]2CC[C@@H](O)C2O)c1-c1nc2ccccc2s1 (stereo partly shown) [Example 1625],EC90,[1],0.5 to 5 µM
Cc1nc(N[C@@H](c2ccc(OC(F)(F)F)cc2)C(F)(F)F)nc(N[C@@H]2C[C@H](CO)[C@@H](O)[C@H]2O)c1-c1nc2c(C)nccc2s1 [Example 1546],EC90,[1],< 0.5 µM
OC[C@H]1C[C@@H](Nc2nc(NCC(F)(F)F)ncc2-c2nc3ccccc3s2)[C@H](O)[C@@H]1O [Example 1058],EC90,[3],0.5 to 5 µM
Cc1nc(NCCN2CCOCC2)nc(N[C@@H]2C[C@H](CO)[C@@H](O)[C@H]2O)c1-c1nc2ccccc2s1 [Example 252],EC90,[4],< 0.5 µM
CC(=O)C1=C[C@@H](O)[C@H](Nc2nc(NCC(F)(F)F)nc(C)c2-c2nc3ccccc3s2)C1 [Example 1636],EC90,[1],< 0.5 µM
Cc1nc(Nc2ccccc2F)nc(N[C@@H]2C[C@H](CO)[C@@H](O)[C@H]2O)c1-c1nc2ccccc2s1 [Example 1043],EC90,[3],> 5 µM
CC(C)(C)Nc1nc(Cl)c(-c2nc3ccccc3s2)c(N[C@@H]2C[C@H](CO)[C@@H](O)[C@H]2O)n1 [Example 428],EC90,[4],< 0.5 µM
OC[C@H]1C[C@@H](Nc2nc(NCC(F)(F)F)nc(Cl)c2-c2nc3ccccc3s2)[C@H](O)[C@@H]1O [Example 124],EC90,[2],< 0.5 µM
Cc1nc(CNc2nc(C)c(-c3nc4ccccc4s3)c(N[C@@H]3C[C@H](CO)[C@@H](O)[C@H]3O)n2)cs1 [Example 495],EC90,[4],< 0.5 µM
Cc1nc(NCCc2ccc(C(C)(C)C)cc2)nc(N[C@@H]2C[C@H](CO)[C@@H](O)[C@H]2O)c1-c1nc2cnccc2s1 [Example 2012],EC90,"Hepatitis C virus, 72 h, replicon RNA level by real time PCR (Taqman), day 3, calculated EC90",< 0.5 µM
COc1ccc(CNc2nc(C)c(-c3nc4ccccc4s3)c(N[C@@H]3C[C@H](CO)[C@H]4OC(C)(C)O[C@H]43)n2)cc1OC [Example 708],EC90,[4],< 0.5 µM
CC(=O)OCCNc1nc(Cl)c(-c2nc3ccccc3s2)c(N[C@@H]2C[C@H](CO)[C@@H](O)[C@H]2O)n1 [Example 209],EC90,[2],< 0.5 µM
CCOc1cc2cc(-c3c(C)nc(NC(C)(C)CC)nc3N[C@@H]3C[C@H](CO)[C@@H](O)[C@H]3O)oc2c(C)n1 [Example 26],EC90,[5],0.5 µM
